Source: patent US11807649B2, “Fused tetracyclic quinazoline derivatives as inhibitors of ErbB2” (EnLiven Therapeutics, Inc., priority 2021, dated 2023)

Each compound was assayed on Ba/F3 ERBB2 YVMA (assay: Cell viability assay (CellTiter Glo), Ba/F3 cells engineered to express ERBB2 YVMA). Settings: Mus musculus, BaF3, 72 h, Ba/F3 cells expressing human ERBB2 YVMA mutant; 72 hours; cell viability, CellTiter Glo; read-out: Ba/F3 ERBB2 YVMA, IC50.
Assay type: cell-based
Procedure: Cells were treated with compounds, and cell viability was measured as a metric of kinase inhibition.
BT-474, A431, MDA-MB-175VII, NCI-H1781, MCF7, and Ba/F3 cell lines were tested. The Ba/F3 cell line is IL-3-dependent mouse cell line derived from the C3H mouse strain. Ba/F3 cell lines were engineered to express human ERBB2 or EGFR kinases, rendering the cells IL-3 independent. The lines were generated via retroviral transduction utilizing a Moloney murine leukemia virus (MMLV) promoter, and constructs are stably integrated into the cell genome. The sequences of the ERBB2 and EGFR genes used were NCBI Reference Sequences NM 004448.3 and NM 005228.3, respectively.
BT-474, A431, MDA-MB-175VII, NCI-H1781 and MCF7 cells were grown in the appropriate growth medium as described in Table B2 below, and harvested at 50-80% confluence. BT-474, A431, MDA-MB-175VII, NCI-H1781 and MCF7 cells were counted and seeded at 2,000 or 1,500 cells per well in 384-well tissue culture plates (see Table B2). Similarly, Ba/F3 cell lines engineered to express EGFR, ERBB2, or ERBB2 mutants were grown, harvested, counted and seeded at 3000 cells per well in 96-well plates. A subset of wells contained media only (low control, “LC”).
Table B1 provides the growth media and number of cells seeded per well for the each cell line.
Compounds were dissolved in DMSO and serially diluted. Serially-diluted compound or a DMSO only control (high control, “HC”) was added to the plated cells in each well. Compounds were tested at concentrations of about 10 μM to 0.51 nM, using three-fold dilutions. The final proportion of DMSO never exceeded 0.1%.
Plates were placed in a 37° C., 5% CO2 incubator for 72 hours. Plates were then removed from the incubator and equilibrated for 15 minutes at room temperature. […] of CellTiter Glo reagent (Promega) was added to measure the relative level of metabolically active cells by quantifying intracellular ATP concentrations. Plates were incubated for 30 minutes at room temperature, and luminescence was measured. Percent viability was normalized to a vehicle control only using the following formula: % viability=100×(Lumsample−LumLC)/(LumHC−LumLC). Graphical curves were fitted using a nonlinear regression model with a sigmoidal dose response.

How did the IC50 turn out when `Cc1cc(Nc2ncnc3cc4c(nc23)N2CCN(C(=O)/C=C/CN(C)C)[C@H](CO4)C2)ccc1Oc1ccc2c(c1)ncn2C` [Compound 6, (E)-4-(dimethylamino)-1-((10S)-4-((3-methyl-4-((1-methyl-1H-benzo[d]imidazol-5-yl)oxy)phenyl)amino)-7,8,10,11-tetrahydro-9H-6,10-methanopyrimido[4′,5′: 5,6]pyrido[3,2-b][1,4,7]oxadiazonin-9-yl)but-2-en-1-one] was run?
The IC50 was 15.8 nM.

With `Cc1cc(Nc2ncnc3cc4c(cc23)N2CCN(C(=O)/C=C/CN(C)C)[C@H](CO4)C2)ccc1Oc1ccc2c(c1)ncn2C` [Compound 7, (E)-4-(dimethylamino)-1-((10S)-4-((3-methyl-4-((1-methyl-1H-benzo[d]imidazol-5-yl)oxy)phenyl)amino)-7,8,10,11-tetrahydro-9H-6,10-methano[1,4,7]oxadiazonino[3,2-g]quinazolin-9-yl)but-2-en-1-one] as the compound, how does the IC50 read?
Its IC50 is 78.7 nM.

`Cc1cc(Nc2ncnc3cc4c(cc23)N2CCN(C(=O)/C=C/CN(C)C)[C@@H](CO4)C2)ccc1Oc1ccn2ncnc2c1` [Compound 8, (E)-1-((10R)-4-((4-([1,2,4]triazolo[1,5-a]pyridin-7-yloxy)-3-methylphenyl)amino)-7,8,10,11-tetrahydro-9H-6,10-methano[1,4,7]oxadiazonino[3,2-g]quinazolin-9-yl)-4-(dimethylamino)but-2-en-1-one] was tested. Which IC50 did it give?
Its IC50 is greater than 500 nM.

`Cc1cc(Nc2ncnc3cc4c(cc23)N2CCN(C(=O)/C=C/CN(C)C)[C@H](CO4)C2)ccc1Oc1ccn2ncnc2c1` [Compound 9, (E)-1-((10S)-4-((4-([1,2,4]triazolo[1,5-a]pyridin-7-yloxy)-3-methylphenyl)amino)-7,8,10,11-tetrahydro-9H-6,10-methano[1,4,7]oxadiazonino[3,2-g]quinazolin-9-yl)-4-(dimethylamino)but-2-en-1-one] was tested. Which IC50 did it give?
The IC50 was 85.9 nM.

For `Cc1cc(Nc2ncnc3cc4c(nc23)N2CCN(C(=O)/C=C/CN(C)C)[C@H](CO4)C2)ccc1Oc1ccn2ncnc2c1` [Compound 10, (E)-1-((10S)-4-((4-([1,2,4]triazolo[1,5-a]pyridin-7-yloxy)-3-methylphenyl)amino)-7,8,10,11-tetrahydro-9H-6,10-methanopyrimido[4′,5′:5,6]pyrido[3,2-b][1,4,7]oxadiazonin-9-yl)-4-(dimethylamino)but-2-en-1-one], which IC50 is on record?
Its IC50 is 7.02 nM.

Which IC50 does the source give for `CC#CC(=O)N1CCN2C[C@H]1COc1cc3ncnc(Nc4ccc(Oc5ccc6c(c5)ncn6C)c(C)c4)c3cc12` [Compound 11] here?
The IC50 was 37.7 nM.

`CC#CC(=O)N1CCN2C[C@H]1COc1cc3ncnc(Nc4ccc(Oc5ccn6ncnc6c5)c(C)c4)c3cc12` [Compound 12, 1-((10S)-4-((4-([1,2,4]triazolo[1,5-a]pyridin-7-yloxy)-3-methylphenyl)amino)-7,8,10,11-tetrahydro-9H-6,10-methano[1,4,7]oxadiazonino[3,2-g]quinazolin-9-yl)but-2-yn-1-one] was tested. Which IC50 did it give?
Its IC50 is 44 nM.

With `Cc1cc(Nc2ncnc3cc4c(nc23)N2CCN(C(=O)/C=C/CN(C)C)[C@@H](CO4)C2)ccc1Oc1ccn2ncnc2c1` [Compound 15, (E)-1-((10R)-4-((4-([1,2,4]triazolo[1,5-a]pyridin-7-yloxy)-3-methylphenyl)amino)-7,8,10,11-tetrahydro-9H-6,10-methanopyrimido[4′,5′:5,6]pyrido[3,2-b][1,4,7]oxadiazonin-9-yl)-4-(dimethylamino)but-2-en-1-one] as the compound, how does the IC50 read?
Its IC50 is 82.3 nM.

`CC#CC(=O)N1CCN2C[C@H]1COc1cc3ncnc(Nc4ccc(Oc5ccc6c(c5)ncn6C)c(C)c4)c3nc12` [Compound 16, 1-((10S)-4-((3-methyl-4-((1-methyl-1H-benzo[d]imidazol-5-yl)oxy)phenyl)amino)-7,8,10,11-tetrahydro-9H-6,10-methanopyrimido[4′,5′:5,6]pyrido[3,2-b][1,4,7]oxadiazonin-9-yl)but-2-yn-1-one] was tested. Which IC50 did it give?
The IC50 was 14 nM.

Which IC50 does the source give for `CC#CC(=O)N1CCN2C[C@@H]1COc1cc3ncnc(Nc4ccc(Oc5ccn6ncnc6c5)c(C)c4)c3cc12` [Compound 17, 1-((10R)-4-((4-([1,2,4]triazolo[1,5-a]pyridin-7-yloxy)-3-methylphenyl)amino)-7,8,10,11-tetrahydro-9H-6,10-methano[1,4,7]oxadiazonino[3,2-g]quinazolin-9-yl)but-2-yn-1-one] here?
The IC50 was greater than 500 nM.

Which IC50 does the source give for `CC#CC(=O)N1CCN2C[C@H]1COc1cc3ncnc(Nc4ccc(Oc5ccn6ncnc6c5)c(C)c4)c3nc12` [Compound 18, 1-((10S)-4-((4-([1,2,4]triazolo[1,5-a]pyridin-7-yloxy)-3-methylphenyl)amino)-7,8,10,11-tetrahydro-9H-6,10-methanopyrimido[4′,5′:5,6]pyrido[3,2-b][1,4,7]oxadiazonin-9-yl)but-2-yn-1-one] here?
Its IC50 is 21.6 nM.

`Cc1ccc(Oc2ccc(Nc3ncnc4cc5c(nc34)N3CCN(C(=O)/C=C/CN(C)C)[C@H](CO5)C3)cc2C)cn1` [Compound 21, (E)-4-(dimethylamino)-1-((10S)-4-((3-methyl-4-((6-methylpyridin-3-yl)oxy)phenyl)amino)-7,8,10,11-tetrahydro-9H-6,10-methanopyrimido[4′,5′:5,6]pyrido[3,2-b][1,4,7]oxadiazonin-9-yl)but-2-en-1-one] was tested. Which IC50 did it give?
The IC50 was 5.23 nM.

For `C=C(F)C(=O)N1CCN2C[C@H]1COc1cc3ncnc(Nc4ccc(Oc5ccn6ncnc6c5)c(C)c4)c3nc12` [Compound 23, 1-((10S)-4-((4-([1,2,4]triazolo[1,5-a]pyridin-7-yloxy)-3-methylphenyl)amino)-7,8,10,11-tetrahydro-9H-6,10-methanopyrimido[4′,5′:5,6]pyrido[3,2-b][1,4,7]oxadiazonin-9-yl)-2-fluoroprop-2-en-1-one], which IC50 is on record?
Its IC50 is 222 nM.

`Cc1cc(Nc2ncnc3cc4c(nc23)N2CCN(C(=O)/C=C/CN(C)C)[C@H](CO4)C2)c(F)cc1Oc1ccn2ncnc2c1` [Compound 24, (E)-1-((10S)-4-((4-([1,2,4]triazolo[1,5-a]pyridin-7-yloxy)-2-fluoro-5-methylphenyl)amino)-7,8,10,11-tetrahydro-9H-6,10-methanopyrimido[4′,5′:5,6]pyrido[3,2-b][1,4,7]oxadiazonin-9-yl)-4-(dimethylamino)but-2-en-1-one] was tested. Which IC50 did it give?
Its IC50 is 6.4 nM.

`Cc1cc(Nc2ncnc3cc4c(nc23)N2CCN(C(=O)/C=C/CN(C)C)[C@H](CO4)C2)ccc1Oc1cccnc1` [Compound 25, (E)-4-(dimethylamino)-1-((10S)-4-((3-methyl-4-(pyridin-3-yloxy)phenyl)amino)-7,8,10,11-tetrahydro-9H-6,10-methanopyrimido[4′,5′:5,6]pyrido[3,2-b][1,4,7]oxadiazonin-9-yl)but-2-en-1-one] was tested. Which IC50 did it give?
Its IC50 is 2.02 nM.

How did the IC50 turn out when `Cc1cc(Nc2ncnc3cc4c(nc23)N2CCN(C(=O)/C=C/[C@H]3CCCN3C)[C@H](CO4)C2)ccc1Oc1ccn2ncnc2c1` [Compound 27, (E)-1-((10S)-4-((4-([1,2,4]triazolo[1,5-a]pyridin-7-yloxy)-3-methylphenyl)amino)-7,8,10,11-tetrahydro-9H-6,10-methanopyrimido[4′,5′:5,6]pyrido[3,2-b][1,4,7]oxadiazonin-9-yl)-3-((R)-1-methylpyrrolidin-2-yl)prop-2-en-1-one] was run?
Its IC50 is 10.6 nM.

How did the IC50 turn out when `Cc1cc(Nc2ncnc3cc4c(nc23)N2CCN(C(=O)/C=C/[C@@H]3CCCN3C)[C@H](CO4)C2)ccc1Oc1ccn2ncnc2c1` [Compound 28, (E)-1-((10S)-4-((4-([1,2,4]triazolo[1,5-a]pyridin-7-yloxy)-3-methylphenyl)amino)-7,8,10,11-tetrahydro-9H-6,10-methanopyrimido[4′,5′:5,6]pyrido[3,2-b][1,4,7]oxadiazonin-9-yl)-3-((S)-1-methylpyrrolidin-2-yl)prop-2-en-1-one] was run?
The IC50 was 6.84 nM.

Which IC50 does the source give for `Cc1cc(Nc2ncnc3cc4c(nc23)N2CCN(C(=O)/C=C/[C@@H](C)N(C)C)[C@H](CO4)C2)ccc1Oc1ccn2ncnc2c1` [Compound 29, (4R,E)-1-((10S)-4-((4-([1,2,4]triazolo[1,5-a]pyridin-7-yloxy)-3-methylphenyl)amino)-7,8,10,11-tetrahydro-9H-6,10-methanopyrimido[4′,5′:5,6]pyrido[3,2-b][1,4,7]oxadiazonin-9-yl)-4-(dimethylamino)pent-2-en-1-one] here?
Its IC50 is 19.6 nM.

With `CN(C)C/C=C/C(=O)N1CCN2C[C@H]1COc1cc3ncnc(Nc4ccc(Oc5ccn6ncnc6c5)cc4)c3nc12` [Compound 31, (E)-1-((10S)-4-((4-([1,2,4]triazolo[1,5-a]pyridin-7-yloxy)phenyl)amino)-7,8,10,11-tetrahydro-9H-6,10-methanopyrimido[4′,5′:5,6]pyrido[3,2-b][1,4,7]oxadiazonin-9-yl)-4-(dimethylamino)but-2-en-1-one] as the compound, how does the IC50 read?
The IC50 was 19.9 nM.
